In ChEMBL document CHEMBL1201862, “PubChem BioAssay data set” (2004):
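Test compounds were applied to cells in 96-well plates for 48 hours at 5 doses. GI50 marks 50% less growth.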 Calls of active or inactive are those of the source. Cut-off read from the data, not from the text of the source: active = GI50 up to about 1.1 µM and inactive = higher.

Columns and labels:
Test in all cases: DTP human tumour cell line panel, 48 h
CCRF-CEM = system: CCRF-CEM
SK-OV-3 = system: SK-OV-3
SW-620 = system: SW-620
COLO 205 = system: COLO 205
SF-268 = system: SF-268
ACHN = system: ACHN
SR = system: SR
SK-MEL-28 = system: SK-MEL-28
M14 = system: M14
HCT-116 = system: HCT-116
KM12 = system: KM12
DLD-1 = system: DLD-1
A549 = system: A549
HCC 2998 = system: HCC 2998
LOX IMVI = system: LOX IMVI
NCI-H460 = system: NCI-H460
RPMI-8226 = system: RPMI-8226
NCI-H226 = system: NCI-H226

Row | SMILES | GI50 (CCRF-CEM) | GI50 (SK-OV-3) | GI50 (SW-620) | GI50 (COLO 205) | GI50 (SF-268) | GI50 (ACHN) | GI50 (SR) | GI50 (SK-MEL-28) | GI50 (M14) | GI50 (HCT-116) | GI50 (KM12) | GI50 (DLD-1) | GI50 (A549) | GI50 (HCC 2998) | GI50 (LOX IMVI) | GI50 (NCI-H460) | GI50 (RPMI-8226) | GI50 (NCI-H226)
1 | N#CC1=C(N)Oc2c(ccc3cccnc23)C1c1ccccc1 (stereo not drawn) | 1.44 µM (inactive) | 0.731 µM (active) | 0.51 µM (active) | 1.24 µM (inactive) | 2.73 µM (inactive) | 10.4 µM (inactive) | 0.333 µM (active) | 6.12 µM (inactive) | 0.57 µM (active) | 0.562 µM (active) | 0.441 µM (active) | 2.3 µM (inactive) | 0.738 µM (active) | 4.69 µM (inactive) | 1.34 µM (inactive) | 0.738 µM (active) |  | 
2 | CN(C)c1ccc(/C=C2\C=Cc3ccccc32)cc1 | 43.2 µM (inactive) | 45.9 µM (inactive) | 38.1 µM (inactive) | 58.6 µM (inactive) | 45.1 µM (inactive) | > 100 µM (inactive) | 32.4 µM (inactive) | 43.6 µM (inactive) | 29.2 µM (inactive) | 33.1 µM (inactive) | 49.7 µM (inactive) | 51.8 µM (inactive) | 76.6 µM (inactive) | 78 µM (inactive) | 47.2 µM (inactive) | 39.4 µM (inactive) | 35.3 µM (inactive) | 
3 | COC(=O)c1ccc(C(=O)OC)c2nc3cc(Cl)ccc3nc12 | > 100 µM (inactive) | > 100 µM (inactive) | > 100 µM (inactive) | > 100 µM (inactive) | > 100 µM (inactive) | > 100 µM (inactive) |  | > 100 µM (inactive) | > 100 µM (inactive) | > 100 µM (inactive) | > 100 µM (inactive) | > 100 µM (inactive) | > 100 µM (inactive) | > 100 µM (inactive) | > 100 µM (inactive) | > 100 µM (inactive) | > 100 µM (inactive) | > 100 µM (inactive)
4 | CNS(=O)(=O)NNS(=O)(=O)c1cccc([N+](=O)[O-])c1 | > 100 µM (inactive) |  | > 100 µM (inactive) | > 100 µM (inactive) |  | > 100 µM (inactive) | > 100 µM (inactive) |  | > 100 µM (inactive) | > 100 µM (inactive) | > 100 µM (inactive) | > 100 µM (inactive) | > 100 µM (inactive) | > 100 µM (inactive) | > 100 µM (inactive) | > 100 µM (inactive) | > 100 µM (inactive) | 
5 | CN(C)CCSc1nccc(-c2cc3ccccc3s2)n1 | 20 µM (inactive) | 37.3 µM (inactive) | 19 µM (inactive) | 17.2 µM (inactive) |  |  | 19.2 µM (inactive) | 20 µM (inactive) | 15.6 µM (inactive) | 24.4 µM (inactive) | 19.3 µM (inactive) | 32.6 µM (inactive) | 17.6 µM (inactive) | 15.7 µM (inactive) | 17.1 µM (inactive) | 13.8 µM (inactive) |  | 14.9 µM (inactive)
6 | CCOC(=O)C1=C(C)N(NC(=O)Nc2ccccc2)C2(N)N(NC(=O)Nc3ccccc3)C(C)=C(C(=O)OCC)C12C#N (stereo not drawn) | 28.2 µM (inactive) | 25.5 µM (inactive) | 18.9 µM (inactive) | 17.7 µM (inactive) | 19.9 µM (inactive) | 21 µM (inactive) |  | 16.9 µM (inactive) | 19.9 µM (inactive) | 17.5 µM (inactive) |  | 19.4 µM (inactive) | 26.5 µM (inactive) | 19.2 µM (inactive) | 18.9 µM (inactive) | 17.8 µM (inactive) | 22 µM (inactive) | 18.4 µM (inactive)
7 | Cc1nc(Nc2ccccc2)sc1C(=O)CC(=O)C(=O)NC12CC3CC(CC(C3)C1)C2 | 82.4 µM (inactive) | > 100 µM (inactive) | > 100 µM (inactive) | > 100 µM (inactive) | > 100 µM (inactive) | > 100 µM (inactive) |  | > 100 µM (inactive) | > 100 µM (inactive) | > 100 µM (inactive) | > 100 µM (inactive) | 80.5 µM (inactive) | > 100 µM (inactive) | > 100 µM (inactive) | 50.4 µM (inactive) | > 100 µM (inactive) |  | > 100 µM (inactive)
8 | Cn1c2cc([N+](=O)[O-])ccc2c(=O)c2c(O)cc3c(c21)C=CC(C)(C)O3 | > 100 µM (inactive) | 21.9 µM (inactive) | > 100 µM (inactive) | > 100 µM (inactive) | 35.1 µM (inactive) | > 100 µM (inactive) |  | > 100 µM (inactive) | > 100 µM (inactive) |  | > 100 µM (inactive) | > 100 µM (inactive) | 57.4 µM (inactive) | > 100 µM (inactive) | > 100 µM (inactive) | > 100 µM (inactive) | > 100 µM (inactive) | 
9 | COc1ccc(/C=N/NC(=O)NCCNCCO)cc1 | > 100 µM (inactive) | > 100 µM (inactive) | > 100 µM (inactive) | > 100 µM (inactive) | > 100 µM (inactive) | > 100 µM (inactive) | > 100 µM (inactive) | > 100 µM (inactive) | > 100 µM (inactive) | > 100 µM (inactive) | > 100 µM (inactive) | > 100 µM (inactive) | > 100 µM (inactive) |  | > 100 µM (inactive) | > 100 µM (inactive) | > 100 µM (inactive) | > 100 µM (inactive)
10 | CCCC/C=C1\CCC(CN2CCCC2)C1=O (stereo not drawn) | 3.5 µM (inactive) | 28.5 µM (inactive) | 2.07 µM (inactive) | 12.9 µM (inactive) | 16 µM (inactive) | 6.46 µM (inactive) | 4.36 µM (inactive) | 15.7 µM (inactive) | 11.2 µM (inactive) | 14.3 µM (inactive) | 2.61 µM (inactive) | 3.76 µM (inactive) | 18.5 µM (inactive) | 18.7 µM (inactive) | 8.09 µM (inactive) | 19.9 µM (inactive) |  | 17.3 µM (inactive)
11 | Cc1ccc(/C=C/C(=O)c2sc(-c3cccnc3)nc2C)cc1 | > 100 µM (inactive) | > 100 µM (inactive) | > 100 µM (inactive) | > 100 µM (inactive) |  | > 100 µM (inactive) |  |  |  |  | > 100 µM (inactive) | > 100 µM (inactive) | > 100 µM (inactive) | > 100 µM (inactive) | > 100 µM (inactive) | > 100 µM (inactive) | > 100 µM (inactive) | > 100 µM (inactive)
12 | Cc1nc2c(n1CC(C)(C)C)C(=O)c1ccccc1C2=O | > 100 µM (inactive) | > 100 µM (inactive) | > 100 µM (inactive) | > 100 µM (inactive) | > 100 µM (inactive) | > 100 µM (inactive) | 97.7 µM (inactive) | > 100 µM (inactive) | > 100 µM (inactive) | 79.3 µM (inactive) | > 100 µM (inactive) | > 100 µM (inactive) | > 100 µM (inactive) | > 100 µM (inactive) | 55.6 µM (inactive) | 58.6 µM (inactive) |  | > 100 µM (inactive)
13 | CCOC(=O)[C@H]1Nc2ccc(OC)cc2C2c3ccccc3CC21 (stereo partly drawn) |  |  | > 100 µM (inactive) | > 100 µM (inactive) | > 100 µM (inactive) | > 100 µM (inactive) | > 100 µM (inactive) | > 100 µM (inactive) | > 100 µM (inactive) | > 100 µM (inactive) | > 100 µM (inactive) | > 100 µM (inactive) | > 100 µM (inactive) | 46.8 µM (inactive) | > 100 µM (inactive) | > 100 µM (inactive) | > 100 µM (inactive) | > 100 µM (inactive)
14 | CS/C(=N/C(=O)c1ccccc1Cl)SCCS/C(=N\C(=O)c1ccccc1Cl)SC | > 100 µM (inactive) |  | > 100 µM (inactive) | > 100 µM (inactive) | > 100 µM (inactive) | > 100 µM (inactive) |  | > 100 µM (inactive) | > 100 µM (inactive) | > 100 µM (inactive) | > 100 µM (inactive) | > 100 µM (inactive) | > 100 µM (inactive) | > 100 µM (inactive) | > 100 µM (inactive) | > 100 µM (inactive) | > 100 µM (inactive) | > 100 µM (inactive)
15 | OCCN(CCO)c1ncnc2c1sc(=S)n2-c1ccccc1 | > 100 µM (inactive) | > 100 µM (inactive) | > 100 µM (inactive) | > 100 µM (inactive) | > 100 µM (inactive) | > 100 µM (inactive) | > 100 µM (inactive) | > 100 µM (inactive) | > 100 µM (inactive) | > 100 µM (inactive) | > 100 µM (inactive) | > 100 µM (inactive) | > 100 µM (inactive) | > 100 µM (inactive) | > 100 µM (inactive) | > 100 µM (inactive) | > 100 µM (inactive) | > 100 µM (inactive)
16 | CCOC(=O)C12CCSC1C1(C#N)C(C#N)=CC2(N=P(c2ccccc2)(c2ccccc2)c2ccccc2)n2c(=O)n(-c3ccccc3)c(=O)n21 (stereo not drawn) | 34.5 µM (inactive) |  | 64 µM (inactive) | 37.8 µM (inactive) | 35.1 µM (inactive) | 40.2 µM (inactive) |  | 27.5 µM (inactive) | 42.2 µM (inactive) | 36.9 µM (inactive) | 32.6 µM (inactive) | 35.9 µM (inactive) | 34.9 µM (inactive) | 27.7 µM (inactive) | 39.9 µM (inactive) | 37.7 µM (inactive) | 26.1 µM (inactive) | 41.3 µM (inactive)
17 | CCN(CCCl)CCCCCNc1c2ccccc2nc2ccc(OC)cc12 | 0.0857 µM (active) | 1.47 µM (inactive) | 0.154 µM (active) | 1.1 µM (active) | 0.597 µM (active) | 0.47 µM (active) |  | 2.72 µM (inactive) | 2.15 µM (inactive) | 0.221 µM (active) | 0.454 µM (active) | 0.35 µM (active) | 0.373 µM (active) | 1.04 µM (active) | 0.178 µM (active) | 0.07 µM (active) | 0.115 µM (active) | 0.321 µM (active)
